Results from patent US12435061B2 (priority 2020, dated 2025).
Structures can show the parent of a compound that is named as a salt. Where two headings read alike, the source gives them in different places.

Biological target: hTRPV3 (Homo sapiens (Human), UniProt Q8NET8)
Test: Whole-cell patch clamp, hTRPV3 Phase 1 / Phase 2 currents
Type: cell-based
Text: Whole-cell patch clamp experiments permit the detection of currents through the TRPV3 channel in the cell line described above. A glass electrode is brought into contact with a single cell and the membrane is then ruptured, permitting control of the voltage of the cell membrane and measurement of currents flowing across the membrane using the amplifier attached to the electrode. A perfusion system permits control of the extracellular solution, including the addition of blockers and activators of the current. The current can be activated by heating this solution to 28° C. or warmer or by addition of 20 μM 2-APB to the solution.
TRPV3 cells were induced 20-48 hours, removed from growth plates, and replated at low density (to attain good single-cell physical separation) on glass coverslips for measurement. In some cases, cells were grown in low density overnight on glass coverslips. Patch clamp recordings were made in the whole-cell mode with a holding potential of −40 mV. Every 5 seconds, a voltage ramp was applied from −120 to +100 mV, 400 ms in duration. Currents elicited were quantified at −80 mV and +80 mV. […] External solution was Ringer's solution described above.
P1 refers to the Phase 1 current for human (h) TRPV3, and P2 refers to the Phase 2 current for human (h) TRPV3.
In Tables 3 and 4, Phase 1 refers to Phase 1 current for human (h) TRPV3 or rat (r) TRPV3, and Phase 2 refers to Phase 2 current for human (h) TRPV3 or rat (r) TRPV3. The hTRPV3 and rTRPV3 assays were performed as described herein. hERG refers to the inhibition the human ERG (hERG) channel. NaV1.5, refers to the pore forming aL-subunit of the voltage-dependent cardiac Na(+) channel and is an integral membrane protein involved in the initiation and conduction of action potentials. hTRPV3 HAMA IC50 refers to the IC50 of TRPV3 cells stably expressed in TRex-293 cells. Solubility Ringer refers to the compounds' solubility in Ringer's solution. LM T1/2 refers to liver microsome half-lives in either rat or human liver microsomes. FLIPR IC50 refers to the IC50 of the test compounds against recombinant hTRPV3 cells.

[1] = Phase 1 current, human TRPV3, read-out: hTRPV3 (nM) Phase 1
[2] = Phase 1 current, inward, whole-cell patch clamp, read-out: hTRPV3 Patch P1 Inwd
[3] = Phase 1 current, read-out: hTRPV3 (nM) (Phase 1)
[4] = Phase 2 current, human TRPV3, read-out: hTRPV3 (nM) Phase 2
[5] = Phase 2 current, inward, whole-cell patch clamp, read-out: hTRPV3 Patch P2 Inwd
[6] = Phase 2 current, read-out: hTRPV3 (nM) (Phase 2)

hTRPV3, sequence (Q8NET8 whole entry): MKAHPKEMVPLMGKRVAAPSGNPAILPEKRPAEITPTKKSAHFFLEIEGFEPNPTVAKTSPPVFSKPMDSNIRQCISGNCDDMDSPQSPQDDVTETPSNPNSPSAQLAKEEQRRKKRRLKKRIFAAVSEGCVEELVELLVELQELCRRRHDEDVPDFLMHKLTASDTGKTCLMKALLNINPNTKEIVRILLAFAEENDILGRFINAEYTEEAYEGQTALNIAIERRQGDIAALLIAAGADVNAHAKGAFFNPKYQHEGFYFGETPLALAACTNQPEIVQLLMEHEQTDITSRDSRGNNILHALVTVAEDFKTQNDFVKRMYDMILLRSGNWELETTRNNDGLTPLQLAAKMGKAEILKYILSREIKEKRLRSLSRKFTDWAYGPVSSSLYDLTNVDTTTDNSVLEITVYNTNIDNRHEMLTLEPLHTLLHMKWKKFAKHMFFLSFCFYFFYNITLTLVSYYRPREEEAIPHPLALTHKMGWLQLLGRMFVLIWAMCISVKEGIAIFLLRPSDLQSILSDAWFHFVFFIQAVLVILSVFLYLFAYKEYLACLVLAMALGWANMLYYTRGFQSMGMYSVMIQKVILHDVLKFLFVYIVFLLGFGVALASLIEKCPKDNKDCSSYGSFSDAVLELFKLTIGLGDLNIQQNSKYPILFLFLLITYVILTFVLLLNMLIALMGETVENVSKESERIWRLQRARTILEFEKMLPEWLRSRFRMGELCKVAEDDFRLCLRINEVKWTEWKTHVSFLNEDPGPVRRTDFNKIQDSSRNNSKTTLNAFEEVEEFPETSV

Row | SMILES | IC50 [2] [nM] | IC50 [3] [nM] | IC50 [5] [nM] | also measured
1 | O=C(c1cc[nH]n1)N1CCC(c2ccc(-c3ccccc3C3CC3)cc2CO)C1 (stereo not shown) [Compound 2-112, (3-(2′-cyclopropyl-3-(hydroxymethyl)biphenyl-4-yl)pyrrolidin-1-yl)(1H-pyrazol-3-yl)methanone] | 10 to 100 |  |  | IC50 [1]: 98 nM
2 | O=C(c1ccc(F)cc1)c1ccc(N2CC[C@H](Oc3ncccc3Cl)C2)c(CCO)c1 [Compound 1-315, (S)-(4-(3-(3-chloropyridin-2-yloxy)pyrrolidin-1-yl)-3-(2-hydroxyethyl)phenyl)(4-fluorophenyl)methanone] | > 1000 | 1260 |  | 
3 | OCc1cc(C2=CCOCC2)ccc1N1CC[C@H](Oc2ccc(C(F)(F)F)cn2)C1 [Compound 1-280, (S)-(5-(3,6-dihydro-2H-pyran-4-yl)-2-(3-(5-(trifluoromethyl)pyridin-2-yloxy)pyrrolidin-1-yl)phenyl)methanol] | > 1000 | ~3600 |  | 
4 | OCc1cc(Oc2ccc(Cl)cc2)ccc1N1CC[C@H](Oc2ccccn2)C1 [Compound 1-283] | 100 to 1000 | 283 |  | 
5 | OCc1cc(Oc2cccc(OC(F)(F)F)c2)ccc1N1CC[C@H](Oc2ccccn2)C1 [Compound 1-307] | 10 to 100 | ~59.5 |  | 
6 | O=C(Nc1ccccc1)c1ccc(N2CC[C@H](Oc3ncccc3Cl)C2)c(CCO)c1 [Compound 1-320, (S)-4-(3-(3-chloropyridin-2-yloxy)pyrrolidin-1-yl)-3-(2-hydroxyethyl)-N-phenylbenzamide] | > 1000 | ~4660 |  | 
7 | O=C(c1ccc(C(F)(F)F)cn1)N1CCC(c2ccc(-c3ccccc3)nc2CO)C1 (stereo not shown) [Compound 2-81] | 100 to 1000 |  | 100 to 1000 | IC50 [1]: 268 nM; IC50 [4]: 298 nM
8 | O=C1C(Oc2ccc3ccccc3n2)CCN1c1ccccc1Cl (stereo not shown) [Compound 1-106, 1-(2-chlorophenyl)-3-(quinolin-2-yloxy)pyrrolidin-2-one] | > 1000 | > 3200 | > 1000 | IC50 [6]: > 3200 nM
9 | OCc1cc(C(O)c2ccccc2Cl)ccc1N1CC[C@H](Oc2ccccn2)C1 (stereo partly drawn) [Compound 1-338, (2-chlorophenyl)(3-(hydroxymethyl)-4-((S)-3-(pyridin-2-yloxy)pyrrolidin-1-yl)phenyl)methanol] | 100 to 1000 | 196 |  | 
10 | COC(C)c1ccccc1Oc1ccc(N2CC[C@H](Oc3ccccn3)C2)c(CCO)c1 (stereo partly drawn) [Compound 1-357, 2-(5-(2-(1-methoxyethyl)phenoxy)-2-((S)-3(pyridin-2-yloxy)pyrrolidin-1-yl)phenyl)ethanol] | 100 to 1000 | 312 |  | 
11 | CC(O)c1cc(F)ccc1-c1ccc(C2CCN(C(=O)c3ccc(Cl)cn3)C2)c(CO)c1 (stereo not shown) [Compound 2-71, (5-chloropyridin-2-yl)(3-(4′-fluoro-2′-(1-hydroxyethyl)-3-(hydroxymethyl)biphenyl-4-yl)pyrrolidin-1-yl)methanone] | 100 to 1000 |  | 100 to 1000 | IC50 [1]: 860 nM; IC50 [4]: 572 nM
12 | OCCc1cc(Oc2ccccc2F)ccc1N1CC[C@H](Oc2ccccn2)C1 [Compound 1-334] | 100 to 1000 | 289 | 100 to 1000 | IC50 [6]: ~243 nM
13 | O=C(c1cccc(Cl)c1)c1ccc(N2CC[C@H](Nc3ccc(F)cn3)C2)c(CCO)c1 [Compound 1-393, (S)-(3-chlorophenyl)(4-(3-(5-fluoropyridin-2-ylamino)pyrrolidin-1-yl)-3-(2-hydroxyethyl)phenyl)methanone] | > 1000 | ~2950 | > 1000 | IC50 [6]: > 3200 nM
14 | Cc1ccc(O[C@H]2CCN(c3ccc(-c4ccccc4C)nc3CO)C2)nc1 [Compound 1-189, (S)-(3-(3-(5-methylpyridin-2-yloxy)pyrrolidin-1-yl)-6-o-tolylpyridin-2-yl)methanol] | 100 to 1000 | 636 | > 1000 | IC50 [6]: 1120 nM
15 | CC(C)c1ccccc1Oc1ccc(C2CCN(C(=O)c3ccccn3)C2)c(CO)c1 (stereo not shown) [Compound 2-13, (3-(2-(hydroxymethyl)-4-(2-isopropylphenoxy)phenyl)pyrrolidin-1-yl)(pyridin-2-yl)methanone] | 100 to 1000 |  |  | IC50 [1]: 193 nM
16 | NC(=O)c1cc(-c2ccccc2)cnc1N1CC[C@H](Nc2ccc(C(F)(F)F)cn2)C1 [Compound 1-374, (S)-5-phenyl-2-(3-(5-(trifluoromethyl)pyridin-2-ylamino)pyrrolidin-1-yl)nicotinamide] | > 1000 | > 3200 | > 1000 | IC50 [6]: > 3200 nM
17 | O=C(c1ccc(N2CC[C@H](Nc3ccc(F)cn3)C2)c(CCO)c1)c1ccccc1Cl [Compound 1-389, (S)-(2-chlorophenyl)(4-(3-(5-fluoropyridin-2-ylamino)pyrrolidin-1-yl)-3-(2-hydroxyethyl)phenyl)methanone] | > 1000 | > 3200 |  | 
18 | NC(=O)c1cc(-c2ccccc2)cnc1N1CC[C@@H](Oc2ccc(C(F)(F)F)cn2)C1 [Compound 1-92, (R)-5-phenyl-2-(3-(5-(trifluoromethyl)pyridin-2-yloxy)pyrrolidin-1-yl)nicotinamide] |  |  |  | hTRPV3 (nM) (Phase 1) (Phase 1 current): Incomplete Block (Phase 1) Incomplete Block (Phase 2); hTRPV3 (nM) (Phase 2) (Phase 2 current): Incomplete Block (Phase 1) Incomplete Block (Phase 2)
19 | O=C(c1ccc(N2CC[C@H](Oc3ncccc3F)C2)c(CO)c1)c1ccccc1Cl [Compound 1-265, (S)-(2-chlorophenyl)(4-(3-(3-fluoropyridin-2-yloxy)pyrrolidin-1-yl)-3-(hydroxymethyl)phenyl)methanone] | > 1000 | 1780 |  | 
20 | COc1ccccc1Oc1ccc(N2CC[C@H](Oc3ccc(F)cn3)C2)c(CO)c1 [Compound 1-336, (S)-(2-(3-(5-fluoropyridin-2-yloxy)pyrrolidin-1-yl)-5-(2-methoxyphenoxy)phenyl)methanol] | 100 to 1000 | 329 | 100 to 1000 | IC50 [6]: 384 nM
21 | O=C(c1cnc(Cl)cn1)N1CCC(c2ccc(-c3ccccc3C3CC3)cc2CO)C1 (stereo not shown) [Compound 2-108] | 10 to 100 |  |  | IC50 [1]: 12.9 nM
22 | CC(C)(C)OC(=O)N1CCC(c2ccc(N3CC[C@H](Oc4ccc(C(F)(F)F)cn4)C3)c(CCO)c2)CC1 [Compound 1-301, (S)-tert-butyl 4-(3-(2-hydroxyethyl)-4-(3-(5-(trifluoromethyl)pyridin-2-yloxy)pyrrolidin-1-yl)phenyl)piperidine-1-carboxylate] | > 1000 | ~2980 |  | 
23 | CC(C)NC(=O)c1ccccc1N1CC[C@H](Oc2ccc(C(F)(F)F)cn2)C1 [Compound 1-46, (S)—N-isopropyl-2-(3-(5-(trifluoromethyl)pyridin-2-yloxy)pyrrolidin-1-yl)benzamide] | > 1000 |  |  | 
24 | O=C1C(Oc2ccc3ccccc3n2)CCN1c1ccc(-c2ccccc2)cc1 (stereo not shown) [Compound 1-95, 1-(biphenyl-4-yl)-3-(quinolin-2-yloxy)pyrrolidin-2-one] | > 1000 | > 3200 |  | 
25 | OCc1cc(Oc2ccccc2F)ccc1N1CC[C@H](Oc2ncccc2F)C1 [Compound 1-298, (S)-(5-(2-fluorophenoxy)-2-(3-(3-fluoropyridin-2-yloxy)pyrrolidin-1-yl)phenyl)methanol] | 10 to 100 | 65.7 | 10 to 100 | IC50 [6]: 52.9 nM
26 | O=C(Nc1ccc(F)cc1)c1ccc(N2CC[C@H](Oc3ncccc3Cl)C2)c(CCO)c1 [Compound 1-319, (S)-4-(3-(3-chloropyridin-2-yloxy)pyrrolidin-1-yl)-N-(4-fluorophenyl)-3-(2-hydroxyethyl)benzamide] | > 1000 | 3440 |  | 
27 | NCc1ccccc1N1CC[C@H](Oc2ccc(C(F)(F)F)cn2)C1 [Compound 1-13, (S)-(2-(3-(5-(trifluoromethyl)pyridin-2-yloxy)pyrrolidin-1-yl)phenyl)methanamine HCl salt] | > 1000 |  | > 1000 | 
28 | NC(=O)c1cc(C2=NCCN2)ccc1N1CC[C@@H](Oc2ccc(C(F)(F)F)cn2)C1 [Compound 1-100, (R)-5-(4,5-dihydro-1H-imidazol-2-yl)-2-(3-(5-(trifluoromethyl)pyridin-2-yloxy)pyrrolidin-1-yl)benzamide] |  |  |  | IC50 (hTRPV3 Patch P1 Inwd (nM)): > 1000 nM; IC50 (hTRPV3 Patch P2 Inwd (nM)): > 1000 nM; IC50 (read-out: hTRPV3 (nM) (Phase 1)): > 3200 nM; IC50 (read-out: hTRPV3 (nM) (Phase 2)): > 3200 nM
29 | O=C(c1ccccc1N1CC[C@@H](Oc2ccc(C(F)(F)F)cn2)C1)N(Cc1ccccc1)Cc1ccccc1 [Compound 1-53, (R)—N,N-dibenzyl-2-(3-(5-(trifluoromethyl)pyridin-2-yloxy)pyrrolidin-1-yl)benzamide] | > 1000 |  |  | 
